From PubChem BioAssay (NCI)
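1) Cells in 96-well plates. 2) Compound, 48 h, 5 concentrations. 3) Linear interpolation between surrounding doses. 4) Unreached endpoint = highest concentration. TGI is the concentration that stops growth completely.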

Legend:
Test in all cases: NCI tumour cell line growth inhibition, 48 h
[1] = test system: 786-0 renal
[2] = test system: ACHN renal
[3] = test system: CAKI-1 renal
[4] = test system: EKVX NSCLC
[5] = test system: HCC-2998 colon
[6] = test system: HL-60(TB) leukemia
[7] = test system: HT29 colon
[8] = test system: M14 melanoma
[9] = test system: MALME-3M melanoma
[10] = test system: MCF7 breast
[11] = test system: MDA-MB-231 breast
[12] = test system: OVCAR-4 ovarian
[13] = test system: RPMI-8226 leukemia
[14] = test system: SF-295 CNS
[15] = test system: SK-MEL-2 melanoma
[16] = test system: SK-OV-3 ovarian
[17] = test system: U251 CNS
[18] = test system: UACC-257 melanoma
[19] = test system: UACC-62 melanoma

## CN=C(N)N=Nc1c(O)[nH]c2ccccc12
[1]
  TGI: > 100 µM
[2]
  TGI: > 100 µM
[3]
  TGI: > 100 µM
[4]
  TGI: > 100 µM
[5]
  TGI: > 100 µM
[6]
  TGI: > 100 µM
[7]
  TGI: > 100 µM
[8]
  TGI: > 100 µM
[9]
  TGI: > 100 µM
[10]
  TGI: > 100 µM
[11]
  TGI: > 100 µM
[12]
  TGI: > 100 µM
[13]
  TGI: > 100 µM
[14]
  TGI: > 100 µM
[15]
  TGI: > 100 µM
[16]
  TGI: > 100 µM
[17]
  TGI: > 100 µM
[18]
  TGI: > 100 µM
[19]
  TGI: > 100 µM

## NC(=O)c1nnsc1NN=O
[1]
  TGI: > 100 µM
[2]
  TGI: > 100 µM
[3]
  TGI: > 100 µM
[4]
  TGI: > 100 µM
[5]
  TGI: > 100 µM
[6]
  TGI: > 100 µM
[7]
  TGI: > 100 µM
[8]
  TGI: > 100 µM
[9]
  TGI: > 100 µM
[10]
  TGI: > 100 µM
[11]
  TGI: > 100 µM
[12]
  TGI: > 100 µM
[13]
  TGI: > 100 µM
[14]
  TGI: > 100 µM
[15]
  TGI: > 100 µM
[16]
  TGI: > 100 µM
[17]
  TGI: > 100 µM
[18]
  TGI: > 100 µM
[19]
  TGI: > 100 µM

## CCO/C(O)=C(/C(=N)N1CCCC1)C(=O)Nc1cccc(Cl)c1
[1]
  TGI: > 100 µM
[2]
  TGI: > 100 µM
[3]
  TGI: > 100 µM
[4]
  TGI: > 100 µM
[5]
  TGI: > 100 µM
[6]
  TGI: > 100 µM
[7]
  TGI: > 100 µM
[8]
  TGI: > 100 µM
[9]
  TGI: > 100 µM
[10]
  TGI: > 100 µM
[11]
  TGI: > 100 µM
[12]
  TGI: > 100 µM
[13]
  TGI: > 100 µM
[14]
  TGI: > 100 µM
[15]
  TGI: > 100 µM
[16]
  TGI: > 100 µM
[17]
  TGI: > 100 µM
[18]
  TGI: > 100 µM
[19]
  TGI: > 100 µM

## NC(N)=NS(=O)(=O)c1ccc(NNC(=O)c2cccc3c(=O)c4ccccc4[nH]c23)cc1
[1]
  TGI: > 100 µM
[2]
  TGI: 61.4 µM
[3]
  TGI: 94.6 µM
[4]
  TGI: 62.2 µM
[5]
  TGI: 38.3 µM
[6]
  TGI: 62.1 µM
[7]
  TGI: 41.8 µM
[8]
  TGI: 34.9 µM
[9]
  TGI: 35.4 µM
[10]
  TGI: 34.3 µM
[11]
  TGI: 95.2 µM
[12]
  TGI: 83.5 µM
[13]
  TGI: > 100 µM
[14]
  TGI: > 100 µM
[15]
  TGI: 63.7 µM
[16]
  TGI: 89.2 µM
[17]
  TGI: > 100 µM
[18]
  TGI: 74.8 µM
[19]
  TGI: 88.9 µM

## N#Cc1ncn(CCO)c1N
[1]
  TGI: > 100 µM
[2]
  TGI: > 100 µM
[3]
  TGI: > 100 µM
[4]
  TGI: > 100 µM
[5]
  TGI: > 100 µM
[6]
  TGI: > 100 µM
[7]
  TGI: > 100 µM
[8]
  TGI: > 100 µM
[9]
  TGI: > 100 µM
[10]
  TGI: > 100 µM
[11]
  TGI: > 100 µM
[12]
  TGI: > 100 µM
[13]
  TGI: > 100 µM
[14]
  TGI: > 100 µM
[15]
  TGI: > 100 µM
[16]
  TGI: > 100 µM
[17]
  TGI: > 100 µM
[18]
  TGI: > 100 µM
[19]
  TGI: > 100 µM

## COc1cc(C(C[N+](=O)[O-])SC(C)=O)ccc1OCc1ccccc1 (centres undefined)
[1]
  TGI: 3.74 µM
[2]
  TGI: 24.7 µM
[3]
  TGI: 27.7 µM
[4]
  TGI: 37.9 µM
[5]
  TGI: 46.6 µM
[6]
  TGI: 1.57 µM
[7]
  TGI: > 20.9 µM
[8]
  TGI: 11.2 µM
[9]
  TGI: 17.5 µM
[10]
  TGI: 10.7 µM
[11]
  TGI: 13.3 µM
[12]
  TGI: 27.7 µM
[13]
  TGI: 4.61 µM
[14]
  TGI: 10.3 µM
[15]
  TGI: 23.4 µM
[16]
  TGI: 29.6 µM
[17]
  TGI: 22.7 µM
[18]
  TGI: 10.5 µM
[19]
  TGI: 8.68 µM
